Laboratory results reported in patent EP4768499A1, “MACROCYCLIC PEPTIDE COMPOUND HAVING CELL MEMBRANE PERMEABILITY AND METABOLIC STABILITY, AND LIBRARY CONTAINING SAME” (Chugai Seiyaku Kabushiki Kaisha, priority 2023, dated 2025).
Starred links: 1 amine or outer side, 2 acyl side, 3 side chain; linkers in the order of their positions; H or OH if unused. Positions of bridges follow the written chain, without caps; N, C: chain ends. Non-standard residues stand in square brackets, D forms with d. Residues, ends and D or L forms follow the SMILES beside them. *: point of attachment. NMeF = CN[C@@H](Cc1ccccc1)C(=O)O; NMeI = CC[C@H](C)[C@H](NC)C(=O)O; NMeT = CN[C@H](C(=O)O)[C@@H](C)O; hPhe = N[C@@H](CCc1ccccc1)C(=O)O; NMeβAla = CN(CCC(=O)[*:2])[*:1]; NMeD = CN[C@@H](CC(=O)O)C(=O)O; NMeL = CN[C@@H](CC(C)C)C(=O)O; dNMeV = CN[C@@H](C(=O)O)C(C)C; NMeV = CN[C@H](C(=O)O)C(C)C; NMeAbu = CC[C@H](NC)C(=O)O; NMeA = CN[C@@H](C)C(=O)O; Piperidide = C1CCN(*)CC1; Abu = CC[C@H](N)C(=O)O; NBuGly = CCCCNCC(=O)O; Sar = CNCC(=O)O; tBu = CC(C)(C)*

Columns and labels:
[1] = Membrane permeability test using Caco-2 cells with preincubation; type: in vitro ADME; conditions: Caco-2; preincubation 20 to 24 hours; Apical FaSSIF/HBSS pH 6.0, Basal HBSS 4% BSA pH 7.4; 180 minutes; read-out: Caco2 Papp
Caco-2 cells = assay: as above; type: in vitro ADME; conditions: Caco-2 cells, preincubation 20 to 24 hours; apical FaSSIF/HBSS 1% DMSO pH 6.0, basal HBSS 4% BSA pH 7.4; basal sample at 180 minutes
[2] = Metabolic stability test: liver microsomal stability assay; type: in vitro ADME, mouse; conditions: mouse liver microsomes 0.5 mg protein/mL, compound 1 µM; for microsomal CLint at 1 µM: male, pH 7.4, presence of NADPH, read-out: Mouse Hepatic Microsome CLh,int NADPH(+); for Mouse Hepatic Microsome CLh,int NADPH(-): absence of NADPH

| Papp A→B [1] [×10⁻⁶ cm/s] | Caco2 Papp (10^-6 cm/sec) (Caco-2 cells) | microsomal CLint at 1 µM [2] [µL/min/mg] | Mouse Hepatic Microsome CLh,int NADPH(-) [2] [µL/min/mg Protein] | SMILES |
| --- | --- | --- | --- | --- |
| 0.44 | 0.44 10^-6 cm/sec | 19.3 | 13.7 | CC(C)C[C@@H]1NC(=O)[C@H](CC(C)C)N(C)C(=O)[C@H]([C@@H](C)O)NC(=O)[C@H](C(C)C)N(C)C(=O)[C@H](Cc2ccccc2)N(C)C(=O)[C@@H](C(C)C)NC(=O)C[C@@H](C(=O)N2CCCCC2)N(C)C(=O)[C@H](C)N(C)C(=O)[C@H](Cc2ccccc2)N(C)C(=O)[C@H](C)NC(=O)[C@H](COC(C)(C)C)NC(=O)[C@H](CC(C)C)N(C)C(=O)CN(C)C1=O [pd158] ([dV][NMeF][NMeV]T[NMeL]L[Sar][NMeL]S(tBu)A[NMeF][NMeA][NMeD]-Piperidide; lactam N-13) |
| 0.09 | 0.09 10^-6 cm/sec | 35.3 | 37.0 | CC(C)C[C@@H]1NC(=O)[C@H](C(C)C)N(C)C(=O)[C@H](Cc2ccccc2)N(C)C(=O)[C@H](COC(C)(C)C)NC(=O)[C@H](CC(C)C)N(C)C(=O)[C@H](C)N(C)C(=O)[C@H]([C@@H](C)O)NC(=O)[C@H](CC(C)C)N(C)C(=O)[C@H](C(C)C)N(C)C(=O)[C@H](CCc2ccccc2)NC(=O)[C@H](CC(C)C)N(C)C(=O)[C@@H](C(C)C)N(C)C(=O)C[C@@H](C(=O)N2CCCCC2)N(C)C1=O [pd161] ([dNMeV][NMeL][hPhe][NMeV][NMeL]T[NMeA][NMeL]S(tBu)[NMeF][NMeV]L[NMeD]-Piperidide; lactam N-13) |
| 0.51 | 0.51 10^-6 cm/sec | 12.5 | 16.3 | CC[C@@H]1NC(=O)[C@H](CC(C)C)N(C)C(=O)[C@H]([C@@H](C)O)NC(=O)[C@H](C(C)C)N(C)C(=O)[C@H](Cc2ccccc2)N(C)C(=O)[C@@H](C(C)C)NC(=O)C[C@@H](C(=O)N2CCCCC2)N(C)C(=O)CN(C)C(=O)[C@H](Cc2ccccc2)N(C)C(=O)[C@H](C)N(C)C(=O)[C@H](COC(C)(C)C)NC(=O)[C@H](CC(C)C)N(C)C(=O)CN(C)C1=O [pd162] ([dV][NMeF][NMeV]T[NMeL][Abu][Sar][NMeL]S(tBu)[NMeA][NMeF][Sar][NMeD]-Piperidide; lactam N-13) |
| 0.13 | 0.13 10^-6 cm/sec | 32.4 | 34.0 | CC[C@H](C)[C@@H]1NC(=O)[C@H](CC(C)C)N(C)C(=O)[C@H](CC(C)C)NC(=O)CCN(C)C(=O)C[C@@H](C(=O)N2CCCCC2)N(C)C(=O)[C@H](CC(C)C)N(C)C(=O)[C@H](C)N(C)C(=O)[C@H]([C@@H](C)O)N(C)C(=O)[C@H](CC(C)C)N(C)C(=O)[C@H](COC(C)(C)C)NC(=O)[C@H](Cc2ccccc2)N(C)C(=O)[C@H](CC(C)C)N(C)C(=O)[C@H](Cc2ccccc2)N(C)C1=O [pd166] ([NMeβAla]L[NMeL]I[NMeF][NMeL][NMeF]S(tBu)[NMeL][NMeT][NMeA][NMeL][NMeD]-Piperidide; lactam N-13) |
| 0.23 | 0.23 10^-6 cm/sec | 35.9 | 33.0 | CC[C@@H]1NC(=O)[C@H](Cc2ccccc2)N(C)C(=O)[C@H]([C@@H](C)O)NC(=O)[C@H](CC(C)C)N(C)C(=O)[C@H](C)N(C)C(=O)C[C@@H](C(=O)N2CCCCC2)N(C)C(=O)[C@H](CC(C)C)N(C)C(=O)[C@H]([C@@H](C)CC)N(C)C(=O)CN(C)C(=O)[C@H](CC(C)C)NC(=O)[C@H](Cc2ccccc2)N(C)C(=O)[C@H](CC(C)C)N(C)C(=O)[C@H]([C@@H](C)CC)N(C)C1=O [pd167] ([NMeA][NMeL]T[NMeF][Abu][NMeI][NMeL][NMeF]L[Sar][NMeI][NMeL][NMeD]-Piperidide; lactam N-13) |

The next lines start with the compound.

| SMILES | Papp A→B [1] [×10⁻⁶ cm/s] | Caco2 Papp (10^-6 cm/sec) (Caco-2 cells) | microsomal CLint at 1 µM [2] [µL/min/mg] | Mouse Hepatic Microsome CLh,int NADPH(-) [2] [µL/min/mg Protein] |
| --- | --- | --- | --- | --- |
| CC(C)C[C@@H]1NC(=O)[C@H](Cc2ccccc2)N(C)C(=O)[C@H](C)N(C)C(=O)[C@H](CC(C)C)N(C)C(=O)CN(C)C(=O)[C@H](C(C)C)N(C)C(=O)[C@H](CC(C)C)N(C)C(=O)[C@H](C(C)C)N(C)C(=O)[C@H](C(C)C)NC(=O)[C@H](CC(C)C)N(C)C(=O)[C@@H](C(C)C)NC(=O)C[C@@H](C(=O)N2CCCCC2)N(C)C(=O)[C@H](C)N(C)C1=O [pd157] ([dV][NMeL]V[NMeV][NMeL][NMeV][Sar][NMeL][NMeA][NMeF]L[NMeA][NMeD]-Piperidide; lactam N-13) | 1.42 | 1.42 10^-6 cm/sec | 31.7 | 24.9 |
| CCCCN1CC(=O)N(C)[C@@H](CC(C)C)C(=O)N[C@@H]([C@@H](C)O)C(=O)N(C)[C@@H](CC(C)C)C(=O)N2CCC[C@H]2C(=O)N[C@@H](CCc2ccccc2)C(=O)N[C@@H]([C@@H](C)CC)C(=O)N(C)[C@H](C(=O)N2CCCCC2)CC(=O)N(C)[C@@H](CC(C)C)C(=O)N[C@@H](COC(C)(C)C)C(=O)N(C)[C@@H](C(C)C)C(=O)N[C@@H]([C@@H](C)CC)C(=O)N2CCC[C@H]2C1=O [pd159] ([NMeL]S(tBu)[NMeV]IP[NBuGly][NMeL]T[NMeL]P[hPhe]I[NMeD]-Piperidide; lactam N-13) | 0.64 | 0.64 10^-6 cm/sec | 49.5 | 42.0 |
| CC[C@H](C)[C@@H]1NC(=O)CN(C)C(=O)C[C@@H](C(=O)N2CCCCC2)N(C)C(=O)[C@H](CC(C)C)NC(=O)[C@H](CC(C)C)N(C)C(=O)[C@H]([C@@H](C)O)NC(=O)[C@H](Cc2ccccc2)N(C)C(=O)[C@H](CC(C)C)NC(=O)[C@H](C(C)C)N(C)C(=O)[C@H](C)N(C)C(=O)[C@H](CC(C)C)N(C)C(=O)[C@H](CCc2ccccc2)NC(=O)[C@H](CC(C)C)N(C)C1=O [pd160] ([Sar]I[NMeL][hPhe][NMeL][NMeA][NMeV]L[NMeF]T[NMeL]L[NMeD]-Piperidide; lactam N-13) | 0.06 | 0.06 10^-6 cm/sec | 21.5 | 22.3 |
| CC[C@@H]1NC(=O)[C@H](Cc2ccccc2)N(C)C(=O)[C@H](CC(C)C)N(C)C(=O)[C@H](CC(C)C)NC(=O)[C@H](C)N(C)C(=O)C[C@@H](C(=O)N2CCCCC2)N(C)C(=O)[C@H](CC(C)C)N(C)C(=O)[C@H]([C@@H](C)CC)NC(=O)[C@H](Cc2ccccc2)N(C)C(=O)[C@H]([C@@H](C)O)N(C)C(=O)[C@H]([C@@H](C)CC)N(C)C(=O)[C@H](CC(C)C)NC(=O)CN(C)C1=O [pd163] ([NMeA]L[NMeL][NMeF][Abu][Sar]L[NMeI][NMeT][NMeF]I[NMeL][NMeD]-Piperidide; lactam N-13) | 0.04 | 0.04 10^-6 cm/sec | 28.2 | 36.5 |
| CC[C@H](C)[C@@H]1NC(=O)[C@@H]2CCCN2C(=O)[C@H](C(C)C)N(C)C(=O)[C@H](CC(C)C)N(C)C(=O)C[C@@H](C(=O)N2CCCCC2)N(C)C(=O)[C@H](CC(C)C)NC(=O)[C@H](CC(C)C)N(C)C(=O)[C@H](C)NC(=O)[C@@H]2CCCN2C(=O)[C@H]([C@@H](C)O)NC(=O)[C@H](CC(C)C)N(C)C(=O)CN(C)C(=O)[C@H](Cc2ccccc2)N(C)C1=O [pd164] ([NMeL][NMeV]PI[NMeF][Sar][NMeL]TPA[NMeL]L[NMeD]-Piperidide; lactam N-13) | 0.06 | 0.06 10^-6 cm/sec | 14.6 | 10.0 |
| CC[C@H](C)[C@@H]1NC(=O)CN(C)C(=O)C[C@@H](C(=O)N2CCCCC2)N(C)C(=O)[C@H](Cc2ccccc2)N(C)C(=O)[C@H](CC(C)C)N(C)C(=O)[C@H]([C@@H](C)O)NC(=O)[C@H](CC(C)C)N(C)C(=O)[C@H](CC(C)C)NC(=O)[C@H](C(C)C)N(C)C(=O)[C@H](C)N(C)C(=O)[C@H](CC(C)C)N(C)C(=O)[C@H](CCc2ccccc2)NC(=O)[C@H](CC(C)C)N(C)C1=O [pd165] ([Sar]I[NMeL][hPhe][NMeL][NMeA][NMeV]L[NMeL]T[NMeL][NMeF][NMeD]-Piperidide; lactam N-13) | 0.1 | 0.10 10^-6 cm/sec | 40.9 | 27.2 |
| CCCCN1CC(=O)N(C)[C@@H](Cc2ccccc2)C(=O)N[C@@H](CC(C)C)C(=O)N(C)[C@@H](C(C)C)C(=O)N(C)[C@@H](C)C(=O)N[C@@H](COC(C)(C)C)C(=O)N(C)[C@@H](CC)C(=O)N(C)[C@H](C(=O)N2CCCCC2)CC(=O)N(C)CC(=O)N(C)[C@@H](Cc2ccccc2)C(=O)N[C@@H]([C@@H](C)CC)C(=O)N(C)[C@@H](CC(C)C)C(=O)N(C)[C@@H]([C@@H](C)O)C1=O [pd168] ([Sar][NMeF]I[NMeL][NMeT][NBuGly][NMeF]L[NMeV][NMeA]S(tBu)[NMeAbu][NMeD]-Piperidide; lactam N-13) | 1.11 | 1.11 10^-6 cm/sec | 21.9 | 21.8 |
